Key:
Assay type in all cases: cell-based
NFκB = test: Microarray assay for DNA-binding activity of NFκB in nuclear cell extracts; conditions: nuclear extracts of WI-38 VA 13 fibroblasts; anti-p50, gold-labelled second antibody, silver; unstimulated cells gave 10
Protocol: Step 1: Binding of the Probes on Glass
Activated glass slides bearing aldehyde groups were purchased from AAT (Belgium).
The slides were first incubated in 0.8 ml of a 50 μg/ml streptavidin solution in a 10 mM phosphate buffer (pH 7.4) containing 10 mM NaCl (PBS10 buffer). After 1 h incubation at 20° C., the plates were washed 3 times for 2 min in PBS150 containing 0.02% Tween 20 and then 2 times 2 min with water. The plates were then incubated for 2 h at 20° C. in 20 ml of PBS150 solution containing 10% non fat dried milk and then washed 5 times 2 min in PBS150 solution.
Spotting was performed with the NFκB consensus probe or with the CREB consensus probe as in example 1. The capture probes were printed onto the microscopic slides with a home made robotic device. 250 μm pins from Genetix (UK) were used. The spots have an average of 400 μm in diameter and the volume dispensed is about 1 nl. The concentration of probes used was 3000 nmolaire. […]
There was no signal for the negative control, while in nuclear cell extracts, activated NFκB is detectable in cell stimulated with IL-1, with a much higher intensity than in unstimulated. The results obtained with the nuclear cell extracts have been quantitated, using a calorimetric microarray reader including the quantification software (AAT, Namur, Belgium). […]

AP-1 = test: Microwell colorimetric DNA-binding assay, AP-1 (anti-c-fos); conditions: nuclear extracts of WI-38 VA13 cells stimulated 30 min, 0.1 μg/ml PMA + 1 μM ionomycin, FIG. 2C
Description: Step 1: Binding of the Double Strand Oligonucleotidic Probe on Multi-well Plates
The spacer double strand nucleotide sequences were constructed from the following CMV sequence: • 5′[…] (SEQ ID NO:146) acting as a spacer was linked to a) the NFκB consensus oligonucleotide 5′[…]-3′ (SEQ ID NO:147) b) the CREB consensus oligonucleotide 5′[…]-3′ (SEQ ID NO:148) and c) the AP-1 consensus oligonucleotide 5′[…]-3′ (SEQ ID NO:149). In the example the spacer was of 100 based pairs. […] Plates are then washed and the amount of DNA fixed on streptavidin-coated plates was quantified using the picogreen assay (Molecular Probes, OR, USA). […]
• cells were rinsed with cold PBS150 • cells were left swollen during 3 min in a cold hypotonic buffer (20 mM Hepes pH 7.4, 5 mM NaF, 1 mM Na2MoO4, 0.1 mM EDTA). • Cells were scrapped in 0.5 ml of hypotonic buffer containing 0.2% nonidet P40 and immediately centrifuged during 30 sec at maximal speed (13000 rpm). • The pellet was resuspended in 100 μl of lysis buffer (hypotonic buffer containing 20% glycerol, 0.4 M NaCl, phosphatases and proteases inhibitors cocktail). • The nuclear extract was agitated 30 min at 4° C., and then centrifuged for 10 min at maximal speed (13000 rpm) at 4° C. • The supernatant (=nuclear extract) was frozen at −80° C. and its proteic content was determined by the Bradford assay. […]

CREB = test: Microarray assay of P-CREB, influence of the spacer; conditions: whole cell lysates of WI-38 VA 13 fibroblasts, 10 μg/ml forskolin
Protocol: Step 1: Binding of the Probes on Glass.
The binding of probes was obtained as described in the example 3 using the consensus sequence of NF-KB or CREB alone or with a spacer of 50, 100, 150 and 250 bp constructed from the sequence given in example 1.
Step 2 :Binding of NFκB on the Double Strand Probe Fixed on Micro-array
This assay was performed with whole cell lysates from WI-38 VA 13 fibroblasts stimulated with IL-1β (a NFκB activator) or 10 μg/ml of forskolin(to activate CREB). The control was 20 μl of lysis buffer mixed with 30 μl of binding buffer.
Steps 3, 4 and 5: Binding of Antibodies and Detection
The binding of the primary anti-NFκB and anti-PCREB antibodies was then used for reaction on the factors followed by a second gold labelled antibody and a calorimetric detection as in example 3. […] The values for P-CREB with unstimulated cells were 5.5 and 4 respectively with no spacer and with a 100 base spacer. The values for stimulated cells were respectively of 7 and 21 respectively with no spacer and a spacer of 100 bases pairs.

## IL-1: a NFκB activator used to stimulate cells
NFκB
  spot intensity for activated NFκB, stimulated cells: 175 grey intensity

## CCCCCCCCCCCCCC(=O)O[C@@H]1[C@@H](C)[C@@]2(O)[C@@H](C=C(CO)C[C@]3(O)C(=O)C(C)=C[C@@H]23)[C@@H]2C(C)(C)[C@]12OC(C)=O [PNA]
AP-1
  signal obtained for the assay of c-fos (AP-1): strongly induced

## C=C[C@@]1(C)CC(=O)[C@]2(O)[C@@]3(C)[C@@H](O)CCC(C)(C)[C@@H]3[C@H](O)[C@H](OC(C)=O)[C@@]2(C)O1 [forskolin]
CREB; probe with 100 bp spacer, unstimulated cells gave 4
  value for P-CREB, stimulated cells, spacer of 100 base pairs: 21
CREB; probe with no spacer, unstimulated cells gave 5.5
  value for P-CREB, stimulated cells, no spacer: 7

— patent US7396643B2, “Method for the screening, the detection and/or the quantification of transcriptional factors” (Eppendorf Array Technologies, S.A., priority 2000, dated 2008)
